Experimental data published in ChEMBL document CHEMBL1139332, “Selective activity against Mycobacteriumtuberculosis of new quinoxaline 1,4-di-N-oxides” (Bioorg Med Chem, 2009).
Values after ≈ are worked out from the molar mass of the structure shown.

Assays:
[1] = Selectivity index, ratio of IC50 for african green monkey Vero cells to MIC for Mycobacterium tuberculosis H37Rv; type: functional
[2] = tested on: Mycobacterium tuberculosis; assay: Antimicrobial activity against Mycobacterium tuberculosis H37Rv at 6.25 ug/ml by microplate alamar blue assay; type: functional
Vero = assay: Cytotoxicity against african green monkey Vero cells after 72 hrs by MTT assay; type: cell-based, Chlorocebus sabaeus; conditions: Chlorocebus sabaeus, Vero, 72 h; read-out: IC50
[3] = tested on: Mycobacterium tuberculosis; assay: Antimicrobial activity against Mycobacterium tuberculosis H37Rv by microplate alamar blue assay; type: functional

SMILES	Ratio [1]	inhibition at 6.25 µg/mL [2]	IC50 (Vero)	MIC [3]
COC(=O)c1ccc(-c2c(C#N)[n+]([O-])c3ccccc3[n+]2[O-])cc1	6.2	90%	4.8 µg/mL (≈ 14.9 µM)	0.78 µg/mL (≈ 2.43 µM)
Cc1ccc(-c2c(C#N)[n+]([O-])c3cc(Cl)c(Cl)cc3[n+]2[O-])cc1	0.23	90%	0.72 µg/mL (≈ 2.08 µM)	3.13 µg/mL (≈ 9.04 µM)
Cc1cc2c(cc1C)[n+]([O-])c(-c1ccc(F)cc1)c(C#N)[n+]2[O-]	>59.07	90%	100 µg/mL (≈ 323 µM)	1.69 µg/mL (≈ 5.46 µM)
CCOC(=O)c1c(-c2ccccc2)[n+]([O-])c2ccc(Cl)cc2[n+]1[O-]	2.13	90%	3.33 µg/mL (≈ 9.66 µM)	1.56 µg/mL (≈ 4.52 µM)
COC(=O)c1ccc(-c2c(C#N)[n+]([O-])c3cc(C(F)(F)F)ccc3[n+]2[O-])cc1	>9.64	90%	1.93 µg/mL (≈ 4.96 µM)	< 0.2 µg/mL
CCOC(=O)c1c(-c2ccccc2)[n+]([O-])c2ccc(OC)cc2[n+]1[O-]	2.84	90%	17.8 µg/mL (≈ 52.2 µM)	6.25 µg/mL (≈ 18.4 µM)
CCOC(=O)c1c(-c2ccccc2)[n+]([O-])c2cc(C)c(C)cc2[n+]1[O-]	>1.6	90%	> 10 µg/mL	6.25 µg/mL (≈ 18.5 µM)
CCOC(=O)c1c(-c2ccccc2)[n+]([O-])c2ccccc2[n+]1[O-]	15.87	90%	24.8 µg/mL (≈ 79.8 µM)	1.56 µg/mL (≈ 5.03 µM)
CCOC(=O)c1c(-c2ccc(Br)cc2)[n+]([O-])c2ccccc2[n+]1[O-]	15.69	90%	6.12 µg/mL (≈ 15.7 µM)	0.39 µg/mL (≈ 1 µM)
CCOC(=O)c1c(-c2ccc(F)cc2)[n+]([O-])c2ccccc2[n+]1[O-]	22.82	90%	8.9 µg/mL (≈ 27.1 µM)	0.39 µg/mL (≈ 1.19 µM)
CCOC(=O)c1c(-c2ccc(Cl)cc2)[n+]([O-])c2ccccc2[n+]1[O-]	12.31	90%	4.8 µg/mL (≈ 13.9 µM)	0.39 µg/mL (≈ 1.13 µM)
CCOC(=O)c1c(-c2ccc(C)cc2)[n+]([O-])c2ccccc2[n+]1[O-]	14.47	90%	11.3 µg/mL (≈ 34.8 µM)	0.78 µg/mL (≈ 2.4 µM)
CCOC(=O)c1c(-c2ccc(C(F)(F)F)cc2)[n+]([O-])c2ccccc2[n+]1[O-]	1.44	90%	2.24 µg/mL (≈ 5.92 µM)	1.56 µg/mL (≈ 4.12 µM)
Cc1ccc(-c2c(C#N)[n+]([O-])c3cc(C)c(C)cc3[n+]2[O-])cc1	>40	90%	> 62.5 µg/mL	1.56 µg/mL (≈ 5.11 µM)
COC(=O)c1ccc(-c2c(C#N)[n+]([O-])c3cc(C)c(C)cc3[n+]2[O-])cc1	1.5	90%	9.66 µg/mL (≈ 27.7 µM)	6.25 µg/mL (≈ 17.9 µM)
CCOC(=O)c1c(-c2ccc([N+](=O)[O-])cc2)[n+]([O-])c2ccccc2[n+]1[O-]	2.9	90%	2.26 µg/mL (≈ 6.36 µM)	0.78 µg/mL (≈ 2.2 µM)
Cc1ccc2c(c1)[n+]([O-])c(C#N)c(-c1ccc(Cl)cc1)[n+]2[O-]	1.15	90%	0.45 µg/mL (≈ 1.44 µM)	0.39 µg/mL (≈ 1.25 µM)
Cc1ccc(-c2c(C#N)[n+]([O-])c3ccccc3[n+]2[O-])cc1	1.7	90%	0.68 µg/mL (≈ 2.45 µM)	0.39 µg/mL (≈ 1.41 µM)
Cc1ccc(-c2c(C#N)[n+]([O-])c3cc(Cl)ccc3[n+]2[O-])cc1	0.1	90%	0.63 µg/mL (≈ 2.02 µM)	6.25 µg/mL (≈ 20 µM)

SMILES	Ratio [1]	inhibition at 6.25 µg/mL [2]	IC50 (Vero)	MIC [3]
N#Cc1c(-c2ccc(F)cc2)[n+]([O-])c2cc(Cl)c(Cl)cc2[n+]1[O-]	>37.06	90%	7.41 µg/mL (≈ 21.2 µM)	< 0.2 µg/mL
COc1ccc2c(c1)[n+]([O-])c(C#N)c(-c1ccc(C)cc1)[n+]2[O-]	2.4	90%	3.8 µg/mL (≈ 12.4 µM)	1.56 µg/mL (≈ 5.08 µM)
COC(=O)c1ccc(-c2c(C#N)[n+]([O-])c3cc(Cl)ccc3[n+]2[O-])cc1	6.7	90%	20.9 µg/mL (≈ 58.7 µM)	3.13 µg/mL (≈ 8.8 µM)
COC(=O)c1ccc(-c2c(C#N)[n+]([O-])c3cc(C)ccc3[n+]2[O-])cc1	8.2	90%	3.2 µg/mL (≈ 9.54 µM)	0.39 µg/mL (≈ 1.16 µM)
COC(=O)c1ccc(-c2c(C#N)[n+]([O-])c3cc(OC)ccc3[n+]2[O-])cc1	1.2	90%	3.9 µg/mL (≈ 11.1 µM)	3.13 µg/mL (≈ 8.91 µM)
N#Cc1c(-c2ccc(Cl)cc2)[n+]([O-])c2ccc(F)cc2[n+]1[O-]	>239.69	90%	47.9 µg/mL (≈ 152 µM)	< 0.2 µg/mL
Cc1ccc(-c2c(C#N)[n+]([O-])c3cc(C(F)(F)F)ccc3[n+]2[O-])cc1	>1.42	90%	0.28 µg/mL (≈ 0.811 µM)	< 0.2 µg/mL
COc1ccc(-c2c(C#N)[n+]([O-])c3cc(F)ccc3[n+]2[O-])cc1	65.15	90%	13 µg/mL (≈ 41.9 µM)	< 0.2 µg/mL
CCOC(=O)c1c(-c2ccccc2)[n+]([O-])c2ccc(C)cc2[n+]1[O-]	11.93	90%	18.6 µg/mL (≈ 57.4 µM)	1.56 µg/mL (≈ 4.81 µM)
Cc1cc2c(cc1C)[n+]([O-])c(-c1ccc(Cl)cc1)c(C#N)[n+]2[O-]	>12.8	90%	> 10 µg/mL	0.78 µg/mL (≈ 2.39 µM)
CCOC(=O)c1c(-c2ccccc2)[n+]([O-])c2cc(F)c(F)cc2[n+]1[O-]	0.24	90%	0.38 µg/mL (≈ 1.1 µM)	1.56 µg/mL (≈ 4.5 µM)
COc1ccc(-c2c(C#N)[n+]([O-])c3cc(C(F)(F)F)ccc3[n+]2[O-])cc1	>4.53	90%	0.9 µg/mL (≈ 2.49 µM)	< 0.2 µg/mL
N#Cc1c(-c2ccc(Cl)cc2)[n+]([O-])c2ccccc2[n+]1[O-]	0.92	90%	0.36 µg/mL (≈ 1.21 µM)	0.39 µg/mL (≈ 1.31 µM)
CCOC(=O)c1c(-c2ccc(OC)cc2)[n+]([O-])c2ccccc2[n+]1[O-]	4.9	90%	7.65 µg/mL (≈ 22.5 µM)	1.56 µg/mL (≈ 4.58 µM)
COc1ccc2c(c1)[n+]([O-])c(C#N)c(-c1ccc(Cl)cc1)[n+]2[O-]	1.3	90%	1 µg/mL (≈ 3.05 µM)	0.78 µg/mL (≈ 2.38 µM)
COC(=O)c1ccc(-c2c(C#N)[n+]([O-])c3cc(F)ccc3[n+]2[O-])cc1	>258.67	90%	57.5 µg/mL (≈ 169 µM)	< 0.2 µg/mL
Cc1ccc(-c2c(C#N)[n+]([O-])c3cc(F)ccc3[n+]2[O-])cc1	>73.19	90%	14.6 µg/mL (≈ 49.6 µM)	< 0.2 µg/mL
N#Cc1c(-c2ccc(Cl)cc2)[n+]([O-])c2ccc(C(F)(F)F)cc2[n+]1[O-]	>6.68	90%	1.34 µg/mL (≈ 3.66 µM)	< 0.2 µg/mL
CO[C@H]1/C=C/O[C@@]2(C)Oc3c(C)c(O)c4c(O)c(c(/C=N/N5CCN(C)CC5)c(O)c4c3C2=O)NC(=O)/C(C)=C\C=C\[C@H](C)[C@H](O)[C@@H](C)[C@@H](O)[C@@H](C)[C@H](OC(C)=O)[C@@H]1C [RIFAMPIN]	>800	90%	> 100 µg/mL	0.125 µg/mL (≈ 0.152 µM)
